Test results reported in paper PMC7835950 (Frontiers in Chemistry, 2021).
“And” between values parts separate entries of the source, which are not always exact repeats. Identical values can stand only once.

How the values were obtained:
[1] = Stability of the phosphonates and their esters during storage, by NMR; assay type: physicochemical; details: for decrease of purity: pure oil, room temperature, argon atmosphere, 6 months
Procedure: Stability of the purified phosphonates and their esterified precursor was analyzed by NMR after storage under the inert (pure argon) or ambient (air) atmosphere and in water solutions. ^1H, ^13C and ^31P NMR spectra were recorded at 400, 100.6, and 161.9 MHz, respectively with a Bruker Avance 400 spectrometer. Chemical shifts were calculated using D2O or CDCl3 as reference standards for trisodium salts and triesters, respectively. The spectra of the phosphonates and their esters before and after storage are shown in Supplementary Figures 1, 2 correspondingly.

[2] = substrate: O=C(O)CCCC(=O)C(=O)O; experiment: OADH reaction (OA saturation) catalyzed by the enzyme preparation from rat heart; assay type: biochemical; details: other: heart preparation; pH 7.0
Procedure: (§1) Enzymes catalyzing OGDH and OADH reactions were enriched from rat hearts and livers using polyethylene glycol precipitation, as previously described (Artiukhov et al., [2020]).
(§2) The enzyme activities were assayed in the medium (pH 7.0) containing 50 mM MOPS, 1 mM ThDP, 1 mM MgCl2, 1 mM CaCl2, 1 mM dithiothreitol 0.15 mM Coenzyme A, 0.25 mM NAD^+ and various concentrations of 2-oxo substrates (0–10 mM OG or OA) and their phosphonate analogs (0–5,000 μM SP, GP, or AP). Reactions were started by addition of the enzyme preparations to the assay media. The amount of enzyme preparations (0.074 mg protein for the preparation from liver and 0.023 mg protein for the preparation from heart) were chosen to induce the lowest reliably measured reaction rate (ΔA340 = 0.001/min) at 0.01 mM OA without the phosphonates.
(§3) Reaction rates were calculated from linear parts of the product accumulation curves (up to 10 min, dependent on the reaction rate), excluding the initial region, where mixing the reagents and solubilization of the preparation affected the optical density. […]
(§4) The kinetic data were also analyzed by linear regression, using the known methods of the linearization of the Michaelis-Menten equation in the Lineweaver-Burk ( 1/a=1/Amax(1+Km/[S]) ) and Eadie-Hofstee ( a=Amax−Kmv/[S] ) coordinates. […]

[3] = substrate: O=C(O)CCCC(=O)C(=O)O; experiment: OADH reaction catalyzed by the enzyme preparation from rat liver, high [OA] (low-affinity OA sites); assay type: biochemical; details: other: liver preparation, pH 7.0
Procedure: as §1, §2, §3, §4

[4] = substrate: O=C(O)CCC(=O)C(=O)O; experiment: purified protein, by the assay type; details: pH 7.0
[5] = substrate: O=C(O)CCCC(=O)C(=O)O; experiment: OADH reaction catalyzed by the enzyme preparation from rat liver, low [OA] (high-affinity OA sites); assay type: biochemical; details: other: liver preparation, pH 7.0
Procedure: as §1, §2, §3, §4

[6] = 0.2 M aqueous solution, 5 days of shelf storage, 31P NMR

## CCOC(=O)CCC(=O)P(=O)(OCC)OCC [TESP, triethyl succinyl phosphonate]
[1]
  decrease of purity: 4–6%

## COC(=O)CCCCC(=O)P(=O)(OC)OC [TMAP, trimethyl adipoyl phosphonate]
[1]; [6]
  compound decomposed: 90%
[1]
  decrease of purity: 4–6%

## CCOC(=O)CCCC(=O)P(=O)(OCC)OCC [TEGP, triethyl glutaryl phosphonate]
[1]; [6]
  compound preserved: about 80%
[1]
  decrease of purity: 4–6%

B1: OGDH (Rattus norvegicus) (protein)
chain: SAPVAAEPFLSGTSSNYVEEMYCAWLENPKSVHKSWDIFFRNTNAGAPPGTAYQSPLSLSRSSLATMAHAQSLVEAQPNVDKLVEDHLAVQSLIRAYQIRGHHVAQLDPLGILDADLDSSVPADIISSTDKLGFYGLHESDLDKVFHLPTTTFIGGQEPALPLREIIRRLEMAYCQHIGVEFMFINDLEQCQWIRQKFETPGIMQFTNEEKRTLLARLVRSTRFEEFLQRKWSSEKRFGLEGCEVLIPALKTIIDMSSANGVDYVIMGMPHRGRLNVLANVIRKELEQIFCQFDSKLEAADEGSGDMKYHLGMYHRRINRVTDRNITLSLVANPSHLEAADPVVMGKTKAEQFYCGDTEGKKVMSILLHGDAAFAGQGIVYETFHLSDLPSYTTHGTVHVVVNNQIGFTTDPRMARSSPYPTDVARVVNAPIFHVNSDDPEAVMYVCKVAAEWRNTFHKDVVVDLVCYRRNGHNEMDEPMFTQPLMYKQIRKQKPVLQKYAELLVSQGVVNQPEYEEEISKYDKICEEAFTRSKDEKILHIKHWLDSPWPGFFTLDGQPRSMTCPSTGLEEDILTHIGNVASSVPVENFTIHGGLSRILKTRRELVTNRTVDWALAEYMAFGSLLKEGIHVRLSGQDVERGTFSHRHHVLHDQNVDKRTCIPMNHLWPNQAPYTVCNSSLSEYGVLGFELGFAMASPNALVLWEAQFGDFNNMAQCIIDQFICPGQAKWVRQNGIVLLLPHGMEGMGPEHSSARPERFLQMCNDDPDVLPNLQEENFDISQLYDCNWIVVNCSTPGNFFHVLRRQILLPFRKPLIVFTPKSLLRHPEARTSFDEMLPGTHFQRVIPEDGPAAQNPDKVKRLLFCTGKVYYDLTRERKARDMAEEVAITRIEQLSPFPFDLLLKEAQKYPNAELAWCQEEHKNQGYYDYVKPRLRTTIDRAKPVWYAGRDPAAAPATGNKKTHLTELQRFLDTAFDLDAFKKFS
notes: the tissue fractions with the complexes enriched to a degree allowing for a robust detection of the enzymatic activities, have been used; from tissue; host or cells: rat liver
[2]
  Km: 550 ± 70 µM
[3]
  Km: 450 ± 120 µM
[4]; other: heart preparation
  Km: 450 ± 60 µM
[4]; other: liver preparation
  Km: 270 ± 60 µM

B2: OADH (Rattus norvegicus) (protein)
chain: MASATVAAAGRALRRAVPLLRRSYQTERGVYGYRPRKAGSGEPRGDRARPSVDHGLARLVTVYCEHGHKAAQINPLFPGQALLDTVPEIQALVQTLQGPFTTTGLLNMGKEEASLEEVLAYLNHIYCGPISIETAQLQSQEEKDWFARRFEELKKETFTTEERKHLSKLLLESQEFDHFLATKFATVKRYGGEGAESMMGFFHELLKLSAYGGITDIIIGMPHRGRLNLLTGLLQLPPELMFRKMRGLSEFPENVAAIGDVLSHLTSSVDLDFGAHRPLHVTMLPNPSHLEAINPVAVGKTRGRQQSQEDGDYSPNGSAQPGDKVICLQVHGDASFCGQGIVLETFTLSNLPHFRIGGSIHLIVNNQLGYTTPAERGRSSLYSSDIGKLVGCAIIHVNGDSPEEVVRATRLAFEYQRQFRKDVIIDLLCYRQWGHNELDEPFFTNPVMYKIIRARKSIPDTYAEHLIASGLMTQEEVSDIKASYYAKLNGHLANVAHYSPPAPHLQARWQGLVQPAACVTTWDTGVPLELLRFVGVKSVEVPEELQLHSHLLKMYVQSRMEKVKNGTNLDWATAETLALGSLLAQGFNVRLSGQDVGRGTFSQRHAMVVCQNTDDVYIPLNHMDPNQKGFLEVSNSPLSEEAVLGFEYGMSIESPKLLPLWEAQFGDFFNGAQIIFDTFISGGEAKWLLQSGLVILLPHGYDGAGPDHSSCRIERFLQMCDSAEEGVDSDTVNMFVVHPTTPAQYFHLLRRQMMRNFRKPLIVASPKMLLRYPVAVSTLEEMAPGTAFKPVIGDSSVDPKNVKTLIFCSGKHFYALLKQRESLGAKKRDFAIIRLEELCPFPLDSLQQEMGKYKHVQDIIWSQEEPQNMGPWSFVYPRFEKQLACKLRLVSRPPLPAPAVGIGTVHQQQHEAILFKTFTS
[5]
  Km: 8 ± 1 µM and 7.7 ± 0.8 µM
